Data: patent US9597314B2, “Beta-lactamylalkanoic acids for treating premenstrual disorders” (AZEVAN PHARMACEUTICALS, INC., priority 2005, dated 2017)

Columns and labels:
[1] = tested on: panel of 63 other receptors; test: Comparative binding to other receptors showing selectivity (NOVASCREEN); settings: 100 nM
Source text: Comparative binding to other receptors showing selectivity.

V1a [2] = molecular target: T1, V1a (Homo sapiens, UniProt P37288); test: Human vasopression V1a receptor binding assay; parameters: host or cells: CHO cells (hV1a cell line), whole adherent cells
Method in brief: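 Whole CHO cells stably expressing human V1a receptor competed 1 nM 3H-AVP against 10-fold serial compound dilutions (DMSO) in pH 7.0 Hepes/BSA/DMEM buffer, 45 min at 37° C.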

vasopressin V1a receptor = molecular target: T2, vasopressin V1a receptor (Homo sapiens, UniProt P37288); test: Inhibition of phosphatidylinositol turnover; format: cell-based; settings: hV1a cells
T2 construct: host or cells: CHO cells (hV1a cell line), whole adherent cells
Source text: Inhibition of phosphatidylinositol turnover. The physiological effects of vasopressin are mediated through specific G-protein coupled receptors. The vasopressin V1a receptor is coupled to the Gq/G11 family of G proteins and mediates phosphatidylinositol turnover. The agonist or antagonist character of the compounds of the invention may be determined by their ability to inhibit vasopressin-mediated turnover of phosphatidylinositol by the procedure described in the following paragraphs.
Cell culture and labeling of cells. Three days prior to the assay, near-confluent cultures of hV1a cells were dissociated and seeded in 6-well tissue culture plates, about 100 wells being seeded from each 75 cm^2 flask (equivalent to 12:1 split ratio).
Incubations. All assays were in triplicate except for basal and 10 nM AVP (both n=6). AVP ((arginine vasopressin), Peninsula Labs, Belmont, Calif., USA (#8103)) was dissolved in 0.1N acetic acid. Test agents were dissolved in DMSO and diluted in DMSO to 200 times the final test concentration. […] The order of incubations was randomized. Incubations were initiated by removing the prelabeling medium, washing the monolayer once with 1 mL of 0.9% NaCl, and transferring the contents of the assay tubes to corresponding wells. The plates were incubated for 1 hour at 37° C. Incubations were terminated by removing the incubation medium and adding 500 μL of ice cold 5% (w/v) trichloroacetic acid and allowing the wells to stand for 15 min.
Measurement of [^3H]inositol phosphates. BioRad Poly-Prep Econo-Columns were packed with 0.3 mL of AG 1 X-8 100-200 formate form resin. Resin was mixed 1:1 with water and 0.6 mL added to each column. Columns were then washed with 10 mL water. Scintillation vials (20 mL) were placed under each column. For each well, the contents were transferred to a minicolumn, after which the well was washed with 0.5 mL distilled water, which was also added to the minicolumn. The columns were then washed twice with 5 mL of 5 mM myo-inositol to elute free inositol. Aliquots (1 mL) were transferred to 20 mL scintillation vials and 10 mL of Beckman Ready Protein Plus added. After the myo-inositol wash was complete, empty scintillation vials were placed under the columns, and [^3H]inositol phosphates were eluted with three additions of 1 mL 0.5 M ammonium formate containing 0.1 N formic acid. Elution conditions were optimized to recover inositol mono-, bis-, and trisphosphates, without eluting the more metabolically inert tetrakis-, pentakis-, and hexakis-phosphates. To each sample was added 10 mL of a high salt capacity scintillation fluid such as Tru-Count High Salt Capacity or Packard Hionic-Fluor. Inositol lipids were measured by adding 1 mL of 2% sodium dodecyl sulfate (SDS) to each well, allowing the wells to stand for at least 30 min., and transferring the solution to 20 mL scintillation vials, to which 10 mL Beckman Ready Protein Plus scintillation fluid was then added. Samples were counted in a Beckman LS 3801 liquid scintillation counter for 10 min. Total inositol incorporation for each well was calculated as the sum of free inositol, inositol phosphates, and inositol lipids.
Data analysis: concentration-inhibition experiments. Concentration-response curves for AVP and concentration-inhibition curves for test agents versus 10 nM AVP were analyzed by nonlinear least-squares curve-fitting to a 4-parameter logistic function. Parameters for basal and maximal inositol phosphates, EC50 or IC50, and Hill coefficient were varied to achieve the best fit. The curve-fitting was weighted under the assumption that the standard deviation was proportional to dpm of radioactivity. Full concentration-response curves for AVP were run in each experiment, and IC50 values were converted to Ki values by application of the Cheng-Prusoff equation, based on the EC50 for AVP in the same experiment. Inositol phosphates were expressed as dpm per 10^6 dpm of total inositol incorporation.

[3] = tested on: AVP-induced rise in blood pressure; test: Blood pressure pharmacology rats; format: in vivo
Source text: Blood pressure pharmacology rats. […] Prior to menses, blood vessels in the uterine wall become engorged with blood. Vasopressin, acting through V1a receptors, causes constriction of both uterine and vascular smooth muscle contributing to the discomfort and pain of primary dysmenorrhea. Vasopressin is one of the endogenous factors that maintains vascular tone. Blocking the V1a receptors localized to smooth muscle may ameliorate the symptoms of primary dysmenorrhea. Elevated concentrations of vasopressin, acting through V1a receptors causes constriction of both uterine and vascular smooth muscle contributing to the discomfort and pain of primary dysmenorrhea. There are no animal models for evaluating receptor antagonists on dysmenorrhea. […]
Male rats were divided into five groups, and each group was tested with placebo, or one of four doses of one or more of the compounds described herein, such as with Example 225 at 0.16, 0.4, 1.0, and 2.5 mg/kg. Rats were treated orally with the compound and effects on blood pressure were measured 90-150 min later as follows. Under isoflurane anesthesia blood pressure was recorded through a cannula in the femoral artery. To increase systemic blood pressure AVP was administered (25 ng/kg) through a cannula in the femoral vein; the change in mean blood pressure was recorded two minutes following injection of AVP.

V1a [4] = molecular target: T1, V1a; parameters: host or cells: human subjects (in vivo); settings: oral, subjects 18-35 years; cited from earlier work

T1 sequence (P37288 whole entry): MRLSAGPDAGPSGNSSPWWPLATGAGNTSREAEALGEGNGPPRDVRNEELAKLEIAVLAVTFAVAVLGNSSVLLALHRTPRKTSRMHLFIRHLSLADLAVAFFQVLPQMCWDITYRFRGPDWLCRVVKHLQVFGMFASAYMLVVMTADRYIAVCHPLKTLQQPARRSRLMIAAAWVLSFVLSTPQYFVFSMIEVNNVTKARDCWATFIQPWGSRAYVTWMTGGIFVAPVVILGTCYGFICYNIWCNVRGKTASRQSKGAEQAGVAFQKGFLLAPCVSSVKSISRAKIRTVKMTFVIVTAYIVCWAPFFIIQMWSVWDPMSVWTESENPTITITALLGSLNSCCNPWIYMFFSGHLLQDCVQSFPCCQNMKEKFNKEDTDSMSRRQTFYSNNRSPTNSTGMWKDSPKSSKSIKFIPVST
T2 sequence (P37288 whole entry): as above

Structure (SMILES): CN(Cc1cccc(C(F)(F)F)c1)C(=O)[C@@H](CC(=O)N1CCC(N2CCCCC2)CC1)N1C(=O)[C@@H](N2C(=O)OC[C@@H]2c2ccccc2)[C@H]1/C=C/c1ccccc1 [Example 225, 2(R)-[[4-(Piperidinyl)piperidinyl]carbonylmethyl]-2-[3(S)-(4(S)-phenyloxazolidin-2-on-3-yl)-4(R)-(2-styryl)azetidin-2-on-1-yl]acetic acid N-methyl-N-(3-trifluoromethylbenzyl)amide]
- selective binding against panel of 63 other receptors [1]: bound only to the V1a vasopressin receptor
- IC50 (V1a [2]; hV1a cell line (CHO), 1 nM 3H-AVP, Table 17, read-out: V1a Binding Affinity (IC50 (nM))): 1.08 nM
- binding curve against [3H]-AVP (V1a [2]; hV1a cell line, 10 fold dilutions of test compound): dose-dependent competitive binding curve
- Ki (vasopressin V1a receptor; from IC50 by Cheng-Prusoff equation, read-out: Ki, suppression of the action of AVP): 0.05 nM
- suppression of the action of AVP (vasopressin V1a receptor; inositol phosphates): dose-dependent suppression of the action of AVP
- IC50 (vasopressin V1a receptor; versus 10 nM AVP, inositol phosphates, read-out: IC50, suppression of the action of AVP): 2.68 nM
- inhibition of the AVP-induced rise in blood pressure ([3]; male rats, oral 0.16, 0.4, 1.0, 2.5 mg/kg, 90-150 min before AVP 25 ng/kg): dose-dependent inhibition of the AVP-induced rise in blood pressure
- reduction in blood pressure as compared to vehicle and the two lower doses ([3]; rats, oral 1 and 2.5 mg/kg): significant (p<0.01) reduction in blood pressure

Structure (SMILES): COc1ccc(S(=O)(=O)N2c3ccc(Cl)cc3[C@](O)(c3ccccc3Cl)[C@@H]2C(=O)N2CCC[C@H]2C(N)=O)cc1OC [SR49059]
- reduction in pain across three menstrual cycles (V1a [4]): significant reduction in pain
